Source: PubChem BioAssay (NCI)
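The concentration for 50% growth inhibition is given as GI50. TGI marks complete inhibition of growth.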

Tests used:
Test in all cases: DTP human tumour cell line panel, 384-well format
A498 renal = test system: A498 renal
A549 NSCLC = test system: A549 NSCLC
ACHN renal = test system: ACHN renal
BT-549 breast = test system: BT-549 breast
CAKI-1 renal = test system: CAKI-1 renal
CCRF-CEM leukemia = test system: CCRF-CEM leukemia
COLO 205 colon = test system: COLO 205 colon
DU-145 prostate = test system: DU-145 prostate
EKVX NSCLC = test system: EKVX NSCLC
HCT-116 colon = test system: HCT-116 colon
HL-60(TB) leukemia = test system: HL-60(TB) leukemia
HOP-62 NSCLC = test system: HOP-62 NSCLC
HOP-92 NSCLC = test system: HOP-92 NSCLC
HS 578T breast = test system: HS 578T breast
HT29 colon = test system: HT29 colon
K-562 leukemia = test system: K-562 leukemia
KM12 colon = test system: KM12 colon
LOX IMVI melanoma = test system: LOX IMVI melanoma
MALME-3M melanoma = test system: MALME-3M melanoma
MDA-MB-435 melanoma = test system: MDA-MB-435 melanoma
MDA-MB-468 breast = test system: MDA-MB-468 breast
MOLT-4 leukemia = test system: MOLT-4 leukemia
NCI-H226 lung = test system: NCI-H226 lung
NCI-H322M lung = test system: NCI-H322M lung
OVCAR-3 ovarian = test system: OVCAR-3 ovarian
OVCAR-4 ovarian = test system: OVCAR-4 ovarian
OVCAR-5 ovarian = test system: OVCAR-5 ovarian
OVCAR-8 ovarian = test system: OVCAR-8 ovarian
PC-3 prostate = test system: PC-3 prostate
RPMI-8226 leukemia = test system: RPMI-8226 leukemia
SF-268 CNS = test system: SF-268 CNS
SF-295 CNS = test system: SF-295 CNS
SF-539 CNS = test system: SF-539 CNS
SK-MEL-2 melanoma = test system: SK-MEL-2 melanoma
SK-MEL-5 melanoma = test system: SK-MEL-5 melanoma
SK-OV-3 ovarian = test system: SK-OV-3 ovarian
SN12C renal = test system: SN12C renal
SNB-19 CNS = test system: SNB-19 CNS
SNB-75 CNS = test system: SNB-75 CNS
SR leukemia = test system: SR leukemia
SW-620 colon = test system: SW-620 colon
T-47D breast = test system: T-47D breast
TK-10 renal = test system: TK-10 renal
U251 glioblastoma = test system: U251 glioblastoma
UACC-257 melanoma = test system: UACC-257 melanoma
UACC-62 melanoma = test system: UACC-62 melanoma
UO-31 renal = test system: UO-31 renal

[2H]c1nc(C)nc([2H])c1-c1cc(NC[C@@H](C)c2cccc3c(C(=O)NC)ccnc23)ncn1
GI50 (A498 renal): > 100 µM | TGI (A498 renal): > 100 µM | GI50 (A549 NSCLC): > 100 µM | TGI (A549 NSCLC): > 100 µM | GI50 (ACHN renal): > 100 µM | TGI (ACHN renal): > 100 µM | GI50 (BT-549 breast): > 100 µM | TGI (BT-549 breast): > 100 µM | GI50 (CAKI-1 renal): > 100 µM | TGI (CAKI-1 renal): > 100 µM | GI50 (CCRF-CEM leukemia): > 100 µM | TGI (CCRF-CEM leukemia): > 100 µM | GI50 (COLO 205 colon): > 100 µM | TGI (COLO 205 colon): > 100 µM | GI50 (DU-145 prostate): > 100 µM | TGI (DU-145 prostate): > 100 µM | GI50 (EKVX NSCLC): > 100 µM | TGI (EKVX NSCLC): > 100 µM | GI50 (HCT-116 colon): > 100 µM | TGI (HCT-116 colon): > 100 µM | GI50 (HL-60(TB) leukemia): 55.8 µM | TGI (HL-60(TB) leukemia): > 100 µM | GI50 (HOP-62 NSCLC): > 100 µM | TGI (HOP-62 NSCLC): > 100 µM | GI50 (HOP-92 NSCLC): > 100 µM | TGI (HOP-92 NSCLC): > 100 µM | GI50 (HS 578T breast): > 100 µM | TGI (HS 578T breast): > 100 µM | GI50 (HT29 colon): > 100 µM | TGI (HT29 colon): > 100 µM | GI50 (K-562 leukemia): 48.1 µM | TGI (K-562 leukemia): > 100 µM | GI50 (KM12 colon): > 100 µM | TGI (KM12 colon): > 100 µM | GI50 (LOX IMVI melanoma): > 100 µM | TGI (LOX IMVI melanoma): > 100 µM | GI50 (MALME-3M melanoma): > 100 µM | TGI (MALME-3M melanoma): > 100 µM | GI50 (MDA-MB-435 melanoma): > 72.5 µM | TGI (MDA-MB-435 melanoma): > 100 µM | GI50 (MDA-MB-468 breast): > 100 µM | TGI (MDA-MB-468 breast): > 100 µM | GI50 (MOLT-4 leukemia): > 85.7 µM | TGI (MOLT-4 leukemia): > 100 µM | GI50 (NCI-H226 lung): > 100 µM | TGI (NCI-H226 lung): > 100 µM | GI50 (NCI-H322M lung): > 100 µM | TGI (NCI-H322M lung): > 100 µM | GI50 (OVCAR-3 ovarian): > 100 µM | TGI (OVCAR-3 ovarian): > 100 µM | GI50 (OVCAR-4 ovarian): > 100 µM | TGI (OVCAR-4 ovarian): > 100 µM | GI50 (OVCAR-5 ovarian): > 100 µM | TGI (OVCAR-5 ovarian): > 100 µM | GI50 (OVCAR-8 ovarian): > 100 µM | TGI (OVCAR-8 ovarian): > 100 µM | GI50 (PC-3 prostate): > 100 µM | TGI (PC-3 prostate): > 100 µM | GI50 (RPMI-8226 leukemia): 70.2 µM | TGI (RPMI-8226 leukemia): > 100 µM | GI50 (SF-268 CNS): > 100 µM | TGI (SF-268 CNS): > 100 µM | GI50 (SF-295 CNS): > 100 µM | TGI (SF-295 CNS): > 100 µM | GI50 (SF-539 CNS): > 100 µM | TGI (SF-539 CNS): > 100 µM | GI50 (SK-MEL-2 melanoma): > 100 µM | TGI (SK-MEL-2 melanoma): > 100 µM | GI50 (SK-MEL-5 melanoma): > 100 µM | TGI (SK-MEL-5 melanoma): > 100 µM | GI50 (SK-OV-3 ovarian): > 100 µM | TGI (SK-OV-3 ovarian): > 100 µM | GI50 (SN12C renal): > 100 µM | TGI (SN12C renal): > 100 µM | GI50 (SNB-19 CNS): > 100 µM | TGI (SNB-19 CNS): > 100 µM | GI50 (SNB-75 CNS): > 100 µM | TGI (SNB-75 CNS): > 100 µM | GI50 (SR leukemia): 18.9 µM | TGI (SR leukemia): 50.3 µM | GI50 (SW-620 colon): > 100 µM | TGI (SW-620 colon): > 100 µM | GI50 (T-47D breast): > 100 µM | TGI (T-47D breast): > 100 µM | GI50 (TK-10 renal): > 100 µM | TGI (TK-10 renal): > 100 µM | GI50 (U251 glioblastoma): > 100 µM | TGI (U251 glioblastoma): > 100 µM | GI50 (UACC-257 melanoma): > 100 µM | TGI (UACC-257 melanoma): > 100 µM | GI50 (UACC-62 melanoma): > 100 µM | TGI (UACC-62 melanoma): > 100 µM | GI50 (UO-31 renal): > 100 µM | TGI (UO-31 renal): > 100 µM

CC(C)N(CCCNC(=O)Nc1ccc(C(C)(C)C)cc1)C[C@H]1O[C@@H](n2ccc3c(N)ncnc32)[C@H](O)[C@@H]1O
GI50 (A498 renal): > 100 µM | TGI (A498 renal): > 100 µM | GI50 (A549 NSCLC): > 100 µM | TGI (A549 NSCLC): > 100 µM | GI50 (ACHN renal): > 100 µM | TGI (ACHN renal): > 100 µM | GI50 (BT-549 breast): > 100 µM | TGI (BT-549 breast): > 100 µM | GI50 (CAKI-1 renal): > 100 µM | TGI (CAKI-1 renal): > 100 µM | GI50 (CCRF-CEM leukemia): > 95.3 µM | TGI (CCRF-CEM leukemia): > 100 µM | GI50 (COLO 205 colon): > 100 µM | TGI (COLO 205 colon): > 100 µM | GI50 (DU-145 prostate): > 100 µM | TGI (DU-145 prostate): > 100 µM | GI50 (EKVX NSCLC): > 100 µM | TGI (EKVX NSCLC): > 100 µM | GI50 (HCT-116 colon): > 100 µM | TGI (HCT-116 colon): > 100 µM | GI50 (HL-60(TB) leukemia): > 92.8 µM | TGI (HL-60(TB) leukemia): > 100 µM | GI50 (HOP-62 NSCLC): > 100 µM | TGI (HOP-62 NSCLC): > 100 µM | GI50 (HOP-92 NSCLC): > 100 µM | TGI (HOP-92 NSCLC): > 100 µM | GI50 (HS 578T breast): > 100 µM | TGI (HS 578T breast): > 100 µM | GI50 (HT29 colon): > 87.2 µM | TGI (HT29 colon): > 100 µM | GI50 (K-562 leukemia): > 100 µM | TGI (K-562 leukemia): > 100 µM | GI50 (KM12 colon): > 100 µM | TGI (KM12 colon): > 100 µM | GI50 (LOX IMVI melanoma): > 89 µM | TGI (LOX IMVI melanoma): > 100 µM | GI50 (MALME-3M melanoma): 61.6 µM | TGI (MALME-3M melanoma): > 100 µM | GI50 (MDA-MB-435 melanoma): > 100 µM | TGI (MDA-MB-435 melanoma): > 100 µM | GI50 (MDA-MB-468 breast): 23.1 µM | TGI (MDA-MB-468 breast): > 100 µM | GI50 (MOLT-4 leukemia): 44.7 µM | TGI (MOLT-4 leukemia): > 100 µM | GI50 (NCI-H226 lung): > 100 µM | TGI (NCI-H226 lung): > 100 µM | GI50 (NCI-H322M lung): > 100 µM | TGI (NCI-H322M lung): > 100 µM | GI50 (OVCAR-3 ovarian): > 100 µM | TGI (OVCAR-3 ovarian): > 100 µM | GI50 (OVCAR-4 ovarian): > 100 µM | TGI (OVCAR-4 ovarian): > 100 µM | GI50 (OVCAR-5 ovarian): > 100 µM | TGI (OVCAR-5 ovarian): > 100 µM | GI50 (OVCAR-8 ovarian): > 100 µM | TGI (OVCAR-8 ovarian): > 100 µM | GI50 (PC-3 prostate): > 100 µM | TGI (PC-3 prostate): > 100 µM | GI50 (RPMI-8226 leukemia): 18.9 µM | TGI (RPMI-8226 leukemia): > 100 µM | GI50 (SF-268 CNS): > 63.7 µM | TGI (SF-268 CNS): > 100 µM | GI50 (SF-295 CNS): > 100 µM | TGI (SF-295 CNS): > 100 µM | GI50 (SF-539 CNS): > 100 µM | TGI (SF-539 CNS): > 100 µM | GI50 (SK-MEL-2 melanoma): > 100 µM | TGI (SK-MEL-2 melanoma): > 100 µM | GI50 (SK-MEL-5 melanoma): > 100 µM | TGI (SK-MEL-5 melanoma): > 100 µM | GI50 (SK-OV-3 ovarian): > 100 µM | TGI (SK-OV-3 ovarian): > 100 µM | GI50 (SN12C renal): > 100 µM | TGI (SN12C renal): > 100 µM | GI50 (SNB-19 CNS): > 100 µM | TGI (SNB-19 CNS): > 100 µM | GI50 (SNB-75 CNS): > 100 µM | TGI (SNB-75 CNS): > 100 µM | GI50 (SR leukemia): > 100 µM | TGI (SR leukemia): > 100 µM | GI50 (SW-620 colon): > 100 µM | TGI (SW-620 colon): > 100 µM | GI50 (T-47D breast): > 96.4 µM | TGI (T-47D breast): > 100 µM | GI50 (TK-10 renal): > 100 µM | TGI (TK-10 renal): > 100 µM | GI50 (U251 glioblastoma): > 100 µM | TGI (U251 glioblastoma): > 100 µM | GI50 (UACC-257 melanoma): 41.5 µM | TGI (UACC-257 melanoma): > 95.1 µM | GI50 (UACC-62 melanoma): > 100 µM | TGI (UACC-62 melanoma): > 100 µM | GI50 (UO-31 renal): > 100 µM | TGI (UO-31 renal): > 100 µM
